From ChEMBL document CHEMBL4184126, “Synthesis of novel 6-substituted amino-9-(β-d-ribofuranosyl)purine analogs and their bioactivities on human epithelial cancer cells” (Bioorg Med Chem Lett, 2018)

Tests used:
Assay type in all cases: functional, cell-based; call rule not given here
HCT-116 = assay: Antiproliferative activity against human HCT116 cells after 72 hrs by SRB assay
MCF7 = assay: Antiproliferative activity against human MCF7 cells after 72 hrs by SRB assay
Huh-7 = assay: Antiproliferative activity against human HuH7 cells after 72 hrs by SRB assay
Mahlavu = assay: Antiproliferative activity against human Mahlavu cells after 72 hrs by SRB assay
HepG2 = assay: Antiproliferative activity against human HepG2 cells after 72 hrs by SRB assay
[1] = Antiproliferative activity against human FOCUS cells after 72 hrs by SRB assay
[2] = Homo sapiens, HCT-116, 72 h, read-out: IC50
[3] = Homo sapiens, MCF7, 72 h, read-out: IC50
[4] = Homo sapiens, Huh-7, 72 h, read-out: IC50
[5] = Homo sapiens, Mahlavu, 72 h, read-out: IC50
[6] = Homo sapiens, HepG2, 72 h, read-out: IC50
[7] = Homo sapiens, 72 h, read-out: IC50

SMILES | IC50 (HCT-116; hct-116) | IC50 (MCF7; mcf7) | IC50 (Huh-7; huh-7) | IC50 (HCT-116; [2]) [µM] | IC50 (MCF7; [3]) [µM] | IC50 (Huh-7; [4]) [µM] | IC50 (Mahlavu; [5]) [µM] | IC50 (HepG2; [6]) [µM] | IC50 [1] | IC50 (HepG2; hepg2) | IC50 [1, 7] [µM] | IC50 (Mahlavu; mahlavu)
Cc1ccc(N2CCN(c3nc(N)nc4c3ncn4[C@@H]3O[C@H](CO)[C@@H](O)[C@H]3O)CC2)cc1 | Not Active | Not Active | Not Active | – | – | – | – | – | – | – | – | –
OC[C@H]1O[C@@H](n2cnc3c(NCCNc4ccccc4)ncnc32)[C@H](O)[C@@H]1O | – | – | Not Active | 30 | > 100 | – | – | – | – | – | – | –
Nc1nc(N2CCN(c3ccc(F)cc3)CC2)c2ncn([C@@H]3O[C@H](CO)[C@@H](O)[C@H]3O)c2n1 | – | Not Active | – | 30 | – | > 100 | – | – | – | – | – | –
OC[C@H]1O[C@@H](n2cnc3c(NCCC4=CCCCC4)ncnc32)[C@H](O)[C@@H]1O | – | – | – | 6 | 3 | > 100 | > 100 | 1 | Not Active | – | – | –
Cc1ccc(N2CCN(c3ncnc4c3ncn4[C@@H]3O[C@H](CO)[C@@H](O)[C@H]3O)CC2)cc1 | – | – | Not Active | 70 | > 100 | – | > 100 | – | – | Not Active | 40 | –
O=c1[nH]cc(F)c(=O)[nH]1 [FLUOROURACIL] | – | – | – | 4 | 3 | 30 | 10 | – | – | – | 4 | –
Nc1nc(N2CCN(c3ncccn3)CC2)c2ncn([C@@H]3O[C@H](CO)[C@@H](O)[C@H]3O)c2n1 | Not Active | Not Active | Not Active | – | – | – | – | – | – | – | – | –
CC(C)c1ccc(Nc2ncnc3c2ncn3[C@@H]2O[C@H](CO)[C@@H](O)[C@H]2O)cc1 | – | – | – | 10 | 50 | 60 | 40 | 40 | – | – | 20 | –
OC[C@H]1O[C@@H](n2cnc3c(N4CCN(C5CCCCC5)CC4)ncnc32)[C@H](O)[C@@H]1O | – | Not Active | Not Active | > 100 | – | – | – | – | – | – | – | –
CN(C)c1ccc(Nc2ncnc3c2ncn3[C@@H]2O[C@H](CO)[C@@H](O)[C@H]2O)cc1 | – | – | – | 40 | 30 | 80 | 30 | 30 | – | – | 20 | –
OC[C@H]1O[C@@H](n2cnc3c(N4CCN(c5ncccn5)CC4)ncnc32)[C@H](O)[C@@H]1O | – | – | Not Active | > 100 | 40 | – | – | – | – | – | – | –
Nc1nc(F)nc2c1ncn2[C@@H]1O[C@H](CO)[C@@H](O)[C@@H]1O [FLUDARABINE] | – | – | – | 8 | 15 | 30 | 10 | 20 | – | – | 10 | –
Nc1nc(N2CCN(C(c3ccccc3)c3ccccc3)CC2)c2ncn([C@@H]3O[C@H](CO)[C@@H](O)[C@H]3O)c2n1 | – | – | – | 20 | 20 | 10 | 7 | 20 | – | – | 20 | –
CSc1ccc(Nc2ncnc3c2ncn3[C@@H]2O[C@H](CO)[C@@H](O)[C@H]2O)cc1 | – | Not Active | Not Active | > 100 | – | – | – | – | – | – | – | –
Nc1nc(N2CCN(c3ccccc3)CC2)c2ncn([C@@H]3O[C@H](CO)[C@@H](O)[C@H]3O)c2n1 | – | Not Active | – | 30 | – | 50 | – | > 100 | – | – | 9 | Not Active
OC[C@H]1O[C@@H](n2cnc3c(N4CCN(c5ccc(C(F)(F)F)cc5)CC4)nc(Cl)nc32)[C@H](O)[C@@H]1O | – | – | – | 1 | 4 | 1 to 2 | 3 | 3 | – | – | 1 | –
OC[C@H]1O[C@@H](n2cnc3c(NCCC4=CCCCC4)nc(Cl)nc32)[C@H](O)[C@@H]1O | – | – | – | 90 | 30 | 20 | 30 | 40 | – | – | 50 | –
OC[C@H]1O[C@@H](n2cnc3c(Nc4ccc(N5CCOCC5)cc4)ncnc32)[C@H](O)[C@@H]1O | Not Active | – | Not Active | – | 80 | – | – | – | – | – | – | –
Nc1nc(Cl)nc2c1ncn2[C@H]1C[C@H](O)[C@@H](CO)O1 [CLADRIBINE] | – | – | – | < 0.1 | – | 0.4 to 0.9 | 0.1 | 0.04 | – | – | 0.4 | –
